# From patent publication US12364733B1, “Method for treating septic shock” (Inotrem, priority 2018, dated 2025)
# System: septic shock patients
# Experiment: Phase IIa clinical trial with nangibotide in septic shock patients: SOFA score evolution
# Type: in vivo, human
# Method: This was a randomized, double-blind, two-stage, placebo-controlled study. As described in FIG. 7, the study was composed of 2 stages with a similar treatment regimen, in which 0.3, 1.0 or 3.0 mg/kg/h of nangibotide (corresponding to peptide LR12, having an amino acid sequence as set forth in SEQ ID NO: 9, also known as motrem) was tested versus placebo. All patients with a diagnosis of septic shock were considered for study participation. All potential study patients underwent standard care management procedures. Patients with evidence of septic shock according to the Sepsis-3 definition (Singer et al, JAMA 2016) were considered for inclusion (i.e., patients suffering from sepsis and having (i) persisting hypotension requiring vasopressors to maintain their mean arterial pressure ≥65 mm Hg and (ii) a serum lactate level >2 mmol/L (18 mg/dL) despite adequate volume resuscitation).
# After screening for eligibility, patients were randomized to one of the treatment arms. Then, they received either a 5 mg/kg loading dose of nangibotide over 15 minutes followed by a continuous intravenous (i.v.) infusion of nangibotide or a matching placebo on top of standard of care. Treatment with study drug was initiated as early as possible, but no later than 24 hours after the onset of septic shock, defined by the start of vasopressor therapy. Patients were treated until 12 (±2) hours after the resolution of their septic shock (defined as vasopressor withdrawal) with a maximum treatment duration of 5 days (120 hours).
# Adverse events (AEs) were coded using the MedDRA dictionary version 18.1. Treatment-emergent adverse events (TEAEs) were summarized and listed. Analysis was performed in 49 septic shock patients. The demographic and baseline characteristics were summarized in a descriptive fashion within each population: categorical variables were summarized by contingency tables (frequencies and percentages). sTREM-1 levels at day 1 were also described (mean, standard deviation, standard error, median, quartiles and range, minimum and maximum values). Mortality rates were reported by frequency and percentage. For continuous endpoints, i.e., the sequential organ failure assessment (SOFA), missing data were imputed using LOCF (Last Observation Carry-Forward). For time-to-event analyses, i.e., duration of invasive mechanical ventilation (IMV), duration of continuous renal replacement therapy (CRRT), survival, censored data techniques were utilized. In addition, a sensitivity analysis of time to event data (except survival) was performed using censoring at maximum limit for the corresponding observation period (i.e., either day 28 or day 90). […] The following comparisons were made: each nangibotide dose arm to placebo, all nangibotide doses combined versus placebo, and dose-response using an ordinal trend test. Exploratory composite endpoint: incidence (number and proportion) of patients alive at day 28 and free of vasopressor, free of IMV and free of CRRT were summarized by treatment and compared between treatments with a Fisher's exact test. For pharmacodynamic markers, log transformed data were represented as percentage change from baseline at day 5 or End of Infusion (EOI) if end of infusion was stopped before day 5. […] “All nangibotide” refers to analyses obtained by pooling data from 0.3, 1 and 3 mg/kg/h nangibotide-treated groups.
# [1] = patients with high sTREM-1 at baseline (above median 433 pg/mL), Day 1, 0.3 mg/kg/h
# [2] = patients with high sTREM-1 at baseline (above median 433 pg/mL), Day 1, 1.0 mg/kg/h
# [3] = patients with high sTREM-1 at baseline (above median 433 pg/mL), Day 1, 3.0 mg/kg/h
# [4] = patients with high sTREM-1 at baseline (above median 433 pg/mL), Day 1, all nangibotide doses pooled
# [5] = patients with high sTREM-1 at baseline (above median 433 pg/mL), Day 2, 0.3 mg/kg/h
# [6] = patients with high sTREM-1 at baseline (above median 433 pg/mL), Day 2, 1.0 mg/kg/h
# [7] = patients with high sTREM-1 at baseline (above median 433 pg/mL), Day 2, 3.0 mg/kg/h
# [8] = patients with high sTREM-1 at baseline (above median 433 pg/mL), Day 2, all nangibotide doses pooled
# [9] = patients with high sTREM-1 at baseline (above median 433 pg/mL), Day 3, 0.3 mg/kg/h
# [10] = patients with high sTREM-1 at baseline (above median 433 pg/mL), Day 3, 1.0 mg/kg/h
# [11] = patients with high sTREM-1 at baseline (above median 433 pg/mL), Day 3, 3.0 mg/kg/h
# [12] = patients with high sTREM-1 at baseline (above median 433 pg/mL), Day 3, all nangibotide doses pooled
# [13] = patients with high sTREM-1 at baseline (above median 433 pg/mL), Day 4, 0.3 mg/kg/h
# [14] = patients with high sTREM-1 at baseline (above median 433 pg/mL), Day 4, 1.0 mg/kg/h
# [15] = patients with high sTREM-1 at baseline (above median 433 pg/mL), Day 4, 3.0 mg/kg/h
# [16] = patients with high sTREM-1 at baseline (above median 433 pg/mL), Day 4, all nangibotide doses pooled
# [17] = patients with high sTREM-1 at baseline (above median 433 pg/mL), Day 5, 1.0 mg/kg/h
# [18] = patients with low sTREM-1 at baseline (below median 433 pg/mL), Day 1, 0.3 mg/kg/h
# [19] = patients with low sTREM-1 at baseline (below median 433 pg/mL), Day 1, 1.0 mg/kg/h
# [20] = patients with low sTREM-1 at baseline (below median 433 pg/mL), Day 1, 3.0 mg/kg/h
# [21] = patients with low sTREM-1 at baseline (below median 433 pg/mL), Day 1, all nangibotide doses pooled
# [22] = patients with low sTREM-1 at baseline (below median 433 pg/mL), Day 2, 0.3 mg/kg/h
# [23] = patients with low sTREM-1 at baseline (below median 433 pg/mL), Day 2, 1.0 mg/kg/h
# [24] = patients with low sTREM-1 at baseline (below median 433 pg/mL), Day 2, 3.0 mg/kg/h
# [25] = patients with low sTREM-1 at baseline (below median 433 pg/mL), Day 2, all nangibotide doses pooled
# [26] = patients with low sTREM-1 at baseline (below median 433 pg/mL), Day 3, 0.3 mg/kg/h
# [27] = patients with low sTREM-1 at baseline (below median 433 pg/mL), Day 3, 1.0 mg/kg/h
substance,measurement,setting,value
nangibotide (LQEEDAGEYGCM; TLT-1 peptide),nangibotide efficacy by baseline sTREM-1 subgroup,"patients with baseline sTREM-1 above the median (above 433 pg/mL), pharmacodynamic parameters, medical support, SOFA score",more pronounced
same,"SOFA score evolution (change versus baseline, LOCF), LSMean (SE)",[1],0.16 (0.60)
same,"SOFA score, estimated difference (SE) vs. placebo",[1],0.14 (0.90)
same,"SOFA score evolution (change versus baseline, LOCF), LSMean (SE)",[2],−0.50 (0.59)
same,"SOFA score, estimated difference (SE) vs. placebo",[2],−0.52 (0.89)
same,"SOFA score evolution (change versus baseline, LOCF), LSMean (SE)",[3],−0.38 (0.51)
same,"SOFA score, estimated difference (SE) vs. placebo",[3],−0.40 (0.84)
same,"SOFA score evolution (change versus baseline, LOCF), LSMean (SE)",[4],−0.24 (0.33)
same,"SOFA score, estimated difference (SE) vs. placebo",[4],−0.26 (0.74)
same,"SOFA score evolution (change versus baseline, LOCF), LSMean (SE)",[5],−1.52 (0.80)
same,"SOFA score, estimated difference (SE) vs. placebo",[5],−1.14 (1.21)
same,"SOFA score evolution (change versus baseline, LOCF), LSMean (SE)",[6],−2.00 (0.80)
same,"SOFA score, estimated difference (SE) vs. placebo",[6],−1.63 (1.19)
same,"SOFA score evolution (change versus baseline, LOCF), LSMean (SE)",[7],−0.50 (0.69)
same,"SOFA score, estimated difference (SE) vs. placebo",[7],−0.13 (1.13)
same,"SOFA score evolution (change versus baseline, LOCF), LSMean (SE)",[8],−1.34 (0.44)
same,"SOFA score, estimated difference (SE) vs. placebo",[8],−0.97 (1.00)
same,"SOFA score evolution (change versus baseline, LOCF), LSMean (SE)",[9],−2.73 (0.89)
same,"SOFA score, estimated difference (SE) vs. placebo",[9],−2.64 (1.34)
same,"SOFA score evolution (change versus baseline, LOCF), LSMean (SE)",[10],−2.00 (0.89)
same,"SOFA score, estimated difference (SE) vs. placebo",[10],−1.90 (1.32)
same,"SOFA score evolution (change versus baseline, LOCF), LSMean (SE)",[11],−0.39 (0.77)
same,"SOFA score, estimated difference (SE) vs. placebo",[11],−0.30 (1.25)
same,"SOFA score evolution (change versus baseline, LOCF), LSMean (SE)",[12],−1.71 (0.49)
same,"SOFA score, estimated difference (SE) vs. placebo",[12],−1.61 (1.11)
same,"SOFA score evolution (change versus baseline, LOCF), LSMean (SE)",[13],−3.22 (0.94)
same,"SOFA score, estimated difference (SE) vs. placebo",[13],−2.70 (1.41)
same,"SOFA score evolution (change versus baseline, LOCF), LSMean (SE)",[14],−1.83 (0.93)
same,"SOFA score, estimated difference (SE) vs. placebo",[14],−1.31 (1.39)
same,"SOFA score evolution (change versus baseline, LOCF), LSMean (SE)",[15],−0.51 (0.81)
same,"SOFA score, estimated difference (SE) vs. placebo",[15],0.00 (1.31)
same,"SOFA score evolution (change versus baseline, LOCF), LSMean (SE)",[16],−1.85 (0.52)
same,"SOFA score, estimated difference (SE) vs. placebo",[16],−1.34 (1.16)
same,"SOFA score evolution (change versus baseline, LOCF), LSMean (SE)","patients with high sTREM-1 at baseline (above median 433 pg/mL), Day 5, 0.3 mg/kg/h",−3.20 (0.90)
same,"SOFA score, estimated difference (SE) vs. placebo","patients with high sTREM-1 at baseline (above median 433 pg/mL), Day 5, 0.3 mg/kg/h, 0.3 mg/kg",−2.85 (1.36)
same,"SOFA score, estimated difference (SE) vs. placebo","patients with high sTREM-1 at baseline (above median 433 pg/mL), Day 5, 0.3 mg/kg/h, listed as nangibotide, 0.3 mg/kg",−2.85
same,"SOFA score evolution (change versus baseline, LOCF), LSMean (SE)",[17],−1.83 (0.90)
same,"SOFA score, estimated difference (SE) vs. placebo",[17],−1.48 (1.34)
same,"SOFA score evolution (change versus baseline, LOCF), LSMean (SE)","patients with high sTREM-1 at baseline (above median 433 pg/mL), Day 5, 3.0 mg/kg/h",−0.51 (0.78)
same,"SOFA score, estimated difference (SE) vs. placebo","patients with high sTREM-1 at baseline (above median 433 pg/mL), Day 5, 3.0 mg/kg/h, 3 mg/kg",−0.16 (1.27)
same,"SOFA score, estimated difference (SE) vs. placebo","patients with high sTREM-1 at baseline (above median 433 pg/mL), Day 5, 3.0 mg/kg/h, listed as nangibotide, 3 mg/kg",−0.16
same,"SOFA score evolution (change versus baseline, LOCF), LSMean (SE)","patients with high sTREM-1 at baseline (above median 433 pg/mL), Day 5, all nangibotide doses pooled",−1.85 (0.50)
same,dose response of SOFA score difference vs. placebo,"patients with high sTREM-1 at baseline, 0.3 vs 3 mg/kg/h",inverse dose response
same,"SOFA score evolution (change versus baseline, LOCF), LSMean (SE)",[18],−1.40 (0.80)
same,"SOFA score, estimated difference (SE) vs. placebo",[18],0.29 (1.13)
same,"SOFA score evolution (change versus baseline, LOCF), LSMean (SE)",[19],−0.01 (0.88)
same,"SOFA score, estimated difference (SE) vs. placebo",[19],1.67 (1.20)
same,"SOFA score evolution (change versus baseline, LOCF), LSMean (SE)",[20],−0.35 (1.06)
same,"SOFA score, estimated difference (SE) vs. placebo",[20],1.33 (1.33)
same,"SOFA score evolution (change versus baseline, LOCF), LSMean (SE)",[21],−.059 (0.53)
same,"SOFA score, estimated difference (SE) vs. placebo",[21],1.10 (0.96)
same,"SOFA score evolution (change versus baseline, LOCF), LSMean (SE)",[22],−2.99 (0.92)
same,"SOFA score, estimated difference (SE) vs. placebo",[22],−0.86 (1.30)
same,"SOFA score evolution (change versus baseline, LOCF), LSMean (SE)",[23],−1.62 (1.02)
same,"SOFA score, estimated difference (SE) vs. placebo",[23],0.51 (1.38)
same,"SOFA score evolution (change versus baseline, LOCF), LSMean (SE)",[24],−1.87 (1.22)
same,"SOFA score, estimated difference (SE) vs. placebo",[24],0.26 (1.53)
same,"SOFA score evolution (change versus baseline, LOCF), LSMean (SE)",[25],−2.16 (0.61)
same,"SOFA score, estimated difference (SE) vs. placebo",[25],−0.03 (1.11)
same,"SOFA score evolution (change versus baseline, LOCF), LSMean (SE)",[26],−2.68 (1.02)
same,"SOFA score, estimated difference (SE) vs. placebo",[26],−0.57 (1.44)
same,"SOFA score evolution (change versus baseline, LOCF), LSMean (SE)",[27],−1.51 (1.13)
same,"SOFA score, estimated difference (SE) vs. placebo",[27],0.61 (1.53)
